# Experimental data taken from patent US4066762A, “Derivatives of 7-(2-substituted-2-hydroxyiminoacetamido)-3-(1-substituted tetrazol-5-yl thiomethyl-3-cephem-4-carboxylic acid” (SmithKline Corporation, priority 1976, dated 1978).
# Counter-ions that a name gives are not always drawn. Like-named read-outs stand apart in the source and are kept apart here.
# Tests used:
# Proteus morgani 179 = assay: MIC in vitro, Proteus morgani 179 (G-); assay type: cell-based
# Excerpt: (§1) Table 1 contains minimum inhibitory concentrations in μg./ml. of a number of representative compounds compared with standard agents.
# [1] = system: Serratia Marcescens ATCC 13880; assay: MIC in vitro, Serratia Marcescens ATCC 13880 (G-); assay type: cell-based
# Excerpt: as §1
# [2] = system: Entero. aerogenes ATCC 13048; assay: MIC in vitro, Entero. aerogenes ATCC 13048 (G-); assay type: cell-based; conditions: Klebsiella aerogenes
# Excerpt: as §1
# Entero. cloacae HH 31254 = assay: MIC in vitro, Entero. cloacae HH 31254 (G-); assay type: cell-based; conditions: Enterobacter cloacae, HH31254
# Excerpt: as §1
# S. Aureus SK 23390 = assay: MIC in vitro, S. Aureus SK 23390 (G+); assay type: cell-based; conditions: Staphylococcus aureus
# Excerpt: as §1
# S. villaluz SK 70390 = assay: MIC in vitro, S. villaluz SK 70390 (G+); assay type: cell-based; conditions: read-out: MIC in vitro
# Excerpt: as §1
# Kleb. pneumoniae SK 1200 = assay: MIC in vitro, Kleb. pneumoniae SK 1200 (G-); assay type: cell-based; conditions: Klebsiella pneumoniae, SK1200
# Excerpt: as §1
# Salmonella ATCC 12176 = assay: MIC in vitro, Salmonella ATCC 12176 (G-); assay type: cell-based; conditions: for MIC: Salmonella, ATCC12176, Salmonella ATCC 12176, G-
# Excerpt: as §1
# P. Mirabils PM 444 = assay: MIC in vitro, P. Mirabils PM 444 (G-); assay type: cell-based
# Excerpt: as §1
# Strep. Faecalis HH 34358 = assay: MIC in vitro, Strep. Faecalis HH 34358 (G+); assay type: cell-based; conditions: for MIC: Enterococcus faecalis
# Excerpt: as §1
# Kleb. pneumoniae SK 4200 = assay: MIC in vitro, Kleb. pneumoniae SK 4200 (G-); assay type: cell-based; conditions: Klebsiella pneumoniae, SK4200
# Excerpt: as §1
# S. Aureus HH 127 = assay: MIC in vitro, S. Aureus HH 127 (G+); assay type: cell-based; conditions: Staphylococcus aureus
# Excerpt: as §1
# E. coli HH 33779 = assay: MIC in vitro, E. coli HH 33779 (G-); assay type: cell-based; conditions: Escherichia coli, HH33779
# Excerpt: as §1
# E. coli SK 12140 = assay: MIC in vitro, E. coli SK 12140 (G-); assay type: cell-based; conditions: Escherichia coli, SK12140
# Excerpt: as §1
# Pseudo Aeruginosa HH 63 = assay: MIC in vitro, Pseudo Aeruginosa HH 63 (G-); assay type: cell-based
# Excerpt: as §1
# Kleb. pneumo. 4200 = assay: standard in vivo mouse protection test, Kleb. pneumo. 4200; conditions: sc
# Protocol: (§2) C is 7β-(syn-2-hydroxyimino-2-phenylacetamido)-3-(1-sulfomethyltetrazol-5-ylthiomethyl)-3-cephem-4-carboxylic acid disodium salt. […] 4200; 25 mg./kg. against E. coli 12140; Compound B 45 mg./kg. against Kleb. and 43, >50 against E. coli.
# E. coli 12140 = assay: standard in vivo mouse protection test, E. coli 12140; conditions: s.c.
# Protocol: as §2
# [3] = ATCC13880, Serratia Marcescens ATCC 13880, G-, read-out: MIC in vitro
# [4] = ATCC13048, Entero. aerogenes ATCC 13048, G-, read-out: MIC in vitro
# [5] = P. Mirabils PM 444, G-, read-out: MIC in vitro
# [6] = Escherichia coli, 12140, sc, read-out: ED50
Structure (SMILES),MIC (Proteus morgani 179) [µg/mL],"MIC [1, 3] [µg/mL]","MIC [2, 4] [µg/mL]",MIC (Entero. cloacae HH 31254) [µg/mL],MIC (S. Aureus SK 23390) [µg/mL],"MIC (S. villaluz SK 70390; S. villaluz SK 70390, G+) [µg/mL]",MIC (Kleb. pneumoniae SK 1200) [µg/mL],MIC (Salmonella ATCC 12176) [µg/mL],MIC (P. Mirabils PM 444; [5]) [µg/mL],MIC (Strep. Faecalis HH 34358) [µg/mL],MIC (Kleb. pneumoniae SK 4200) [µg/mL],MIC (S. Aureus HH 127) [µg/mL],MIC (E. coli HH 33779) [µg/mL],MIC (E. coli SK 12140) [µg/mL],MIC (Pseudo Aeruginosa HH 63) [µg/mL],ED50 (Kleb. pneumo. 4200) [mg/kg],ED50 (E. coli 12140; [6]) [mg/kg],also measured
"CO/N=C(\C(=O)N[C@@H]1C(=O)N2C(C(=O)O)=C(CSc3nnnn3CS(=O)(=O)O)CS[C@H]12)c1ccco1 [A, 7β-(syn-2-methoxyimino-2-α-furylacetamido)-3-(1-sulfomethyltetrazol-5-ylthiomethyl)-3-cephem-4-carboxylic acid disodium salt hydrate]",1.6,3.1,3.1,0.8,3.1,> 200,0.4,0.4,1.6,100,0.8,3.1,1.6,0.8,100,–,–,"MIC ([1]; Serratia marcescens, ATCC13880, read-out: MIC in vitro, Serratia Marcescens ATCC 13880, G-): 6.3 µg/mL; MIC in vitro (Salmonella ATCC 12176; Salmonella ATCC 12176, G-, disodium salt hydrate): 0.8 µg/mL; MIC (P. Mirabils PM 444; read-out: MIC in vitro, P. Mirabils PM 444, G-): 0.2 µg/mL; MIC in vitro (Strep. Faecalis HH 34358; disodium salt hydrate): 200 µg/mL"
"Cc1nnc(SCC2=C(C(=O)O)N3C(=O)[C@@H](NC(=O)Cn4cnnn4)[C@H]3SC2)s1 [Cefazolin, reference compound]",200,> 200,1.6,0.8,0.2,–,0.4,0.8,3.1,6.3,1.6,0.4,1.6,0.8,> 200,–,–,–
"CO[C@@]1(NC(=O)Cc2cccs2)C(=O)N2C(C(=O)O)=C(COC(N)=O)CS[C@@H]21 [Cefoxitin, reference compound]",12.5,12.5,25,6.3,3.1,100,3.1,3.1,6.3,200,6.3,1.6,12.5,6.3,> 200,–,–,–
"CO/N=C(\C(=O)N[C@@H]1C(=O)N2C(C(=O)O)=C(COC(N)=O)CS[C@H]12)c1ccco1 [Cefuroxime, reference compound]",50,12.5,6.3,3.1,1.6,> 200,3.1,3.1,1.6,12.5,6.3,0.8,6.3,6.3,> 200,–,–,–
"CO/N=C(\C(=O)N[C@@H]1C(=O)N2C(C(=O)O)=C(CSc3nnnn3CS(=O)(=O)O)CS[C@H]12)c1ccccc1 [Compound B, 7β-(syn-2-methoxyimino-2-phenylacetamido)-3-(1-sulfomethyltetrazol-5-ylthiomethyl)-3-cephem-4-carboxylic acid disodium salt]",6.3,12.5,–,3.1,1.6,–,3.1,1.6,–,25,3.1,1.6,6.3,6.3,200,45,43,"MIC ([2]; ATCC13048, read-out: MIC in vitro): 12.5 µg/mL; MIC (S. villaluz SK 70390): > 200 µg/mL; ED50 (E. coli 12140; disodium salt): > 50 mg/kg"
"O=C(O)C1=C(CSc2nnnn2CS(=O)(=O)O)CS[C@@H]2[C@H](NC(=O)/C(=N\O)c3ccccc3)C(=O)N12 [Compound C, 7β-(syn-2-hydroxyimino-2-phenylacetamido)-3-(1-sulfomethyltetrazol-5-ylthiomethyl)-3-cephem-4-carboxylic acid disodium salt]",25,12.5,6.3,1.6,0.8,100,0.8,0.8,–,6.3,1.6,0.8,3.1,1.6,> 200,4.4,25,–
